From a melting point compilation (Tetko et al.; mined from patent text by program, amines drawn as free bases though some values may be those of a salt)

**Q.** Which melting point does the source give for `CCCCCSc1ccc(-c2ncc(CCCCC)cn2)cc1` here?
**A.** The melting point was 52.8 °C.

**Q.** Which melting point does the source give for `N#Cc1ccc(OCc2cccnc2)cc1OC(C(=O)O)c1ccccc1` (racemic) here?
**A.** The melting point was 201 to 202 °C.

**Q.** With `O=C(NCc1ccc(Br)cc1)Nc1cccc2[nH]ccc12` as the compound, how does the melting point read?
**A.** Its melting point is 198 °C.

**Q.** For `COc1cc(Cl)ccc1CCl`, which melting point is on record?
**A.** Its melting point is 43 to 45 °C.

**Q.** For `COC(=O)CCc1ccc(NC(=O)NNC(C)=O)cc1`, which melting point is on record?
**A.** The melting point was 159 to 165 °C.

**Q.** For `COc1cc(OC)c2ccccc2c1O`, which melting point is on record?
**A.** The melting point was 87 to 88 °C.

**Q.** With `CC(=O)N1CCCC2=C1CC(c1ccccc1)c1cc(Cl)ccc12` (centres undefined) as the compound, how does the melting point read?
**A.** Its melting point is 167 to 168 °C.

**Q.** For `COc1ccc(C2(C#N)C3CC4CC(C3)CC2C4)cc1` (centres undefined), which melting point is on record?
**A.** The melting point was 165 to 166 °C.

**Q.** Which melting point does the source give for `Oc1ccc(Oc2ccc(I)cn2)cc1` here?
**A.** Its melting point is 110 °C.

**Q.** Which melting point does the source give for `CCc1nn(-c2ccccc2)nc1C(C#N)C(=O)c1c(C)c(C)nn1C` (centres undefined) here?
**A.** The melting point was 119 °C.

**Q.** For `CCOC(=O)c1ccc(Oc2cccc3[nH]c4cnc(C(=O)OC(C)C)c(COC)c4c23)o1`, which melting point is on record?
**A.** Its melting point is 191 to 192 °C.

**Q.** For `Clc1ccc(C(OCCN2CCOCC2)(c2ccc(Cl)cc2)c2ccc(Cl)cc2)cc1`, which melting point is on record?
**A.** Its melting point is 151 to 153 °C.

**Q.** Which melting point does the source give for `CCN1CCN(CCCOc2cc3ncc(C#N)c(Nc4ccc(Sc5nc(C)c(C)n5CC)c(Cl)c4)c3cc2OC)CC1` here?
**A.** Its melting point is 229 to 230 °C.

**Q.** For `COC(=O)C(CCSC)NC(=O)c1ccc(NC(=O)C2CC(O)CN2C(=O)OC(C)(C)C)cc1-c1ccccc1` (centres undefined), which melting point is on record?
**A.** The melting point was 121 to 123 °C.

**Q.** Which melting point does the source give for `COc1cc(-c2csc(-c3ccccc3)n2)cc2oc(=O)c(C)c(C)c12` here?
**A.** The melting point was 152 to 154 °C.

**Q.** For `COC(=O)c1cccnc1NC(=O)C(C)CS` (centres undefined), which melting point is on record?
**A.** The melting point was 50 to 52 °C.

**Q.** With `CC(C)c1nc(-c2c(F)c(F)cc(F)c2F)cc(-c2ccc(F)cc2)c1C=C(Br)Br` as the compound, how does the melting point read?
**A.** The melting point was 77 °C.

**Q.** For `CC(C)(C)C(=O)c1ccc(C(C)(C)C(=O)O)cc1`, which melting point is on record?
**A.** The melting point was 128 to 130 °C.

**Q.** With `O=C1c2c(-c3ccccc3F)noc2CCC1CCCN1CCN(c2ccccn2)CC1` (centres undefined) as the compound, how does the melting point read?
**A.** The melting point was 94 to 96 °C.

**Q.** For `Cc1c(OCc2nnn[nH]2)cc2c(c1Cl)C(=O)C1(CCCC1)C2=O`, which melting point is on record?
**A.** The melting point was 211 °C.

**Q.** With `CCOCCNC(=O)OCCCc1ccc(OCCOC)cc1Oc1ncc(C(F)(F)F)cc1Cl` as the compound, how does the melting point read?
**A.** Its melting point is 66 to 68 °C.

**Q.** With `O=C1C(=O)N(c2cccc3ccccc23)C(=O)N1c1ccc(Cl)cc1` as the compound, how does the melting point read?
**A.** Its melting point is 158 °C.

**Q.** With `CCOC(=O)CNC(=O)Oc1c(C)n(CC)ccc1=O` as the compound, how does the melting point read?
**A.** The melting point was 102 to 103 °C.

**Q.** For `CNC(Cc1ccc(C(F)(F)F)cc1N)c1sccc1C` (centres undefined), which melting point is on record?
**A.** Its melting point is 52 to 54 °C.

**Q.** Which melting point does the source give for `CCCCCS(=O)(=O)NC(=O)c1ccc2nc(C)n(Cc3ccc(NC)cc3Cl)c2n1` here?
**A.** Its melting point is 185 to 186 °C.

**Q.** With `COC(=O)Cc1cc(Br)c(S(=O)(=O)c2ccc(O)c(C(C)C)c2)c(Br)c1` as the compound, how does the melting point read?
**A.** The melting point was 159 to 160 °C.

**Q.** Which melting point does the source give for `Cn1cc(C2=C(c3cn(C)c4ccc([N+](=O)[O-])cc34)C(=O)NC2=O)c2ccccc21` here?
**A.** The melting point was 282 to 284 °C.

**Q.** For `O=C(O)COc1c(I)cc(-c2c3ccccc3cc3sc4ccccc4c23)cc1I`, which melting point is on record?
**A.** The melting point was 250 to 252 °C.

**Q.** For `N#Cc1cnc2cc(/C=C/CN3CCOCC3)ccc2c1Nc1ccc(Cl)cc1Cl`, which melting point is on record?
**A.** Its melting point is 175 to 176 °C.

**Q.** With `CC(C)(c1ccc2ncccc2c1)n1nnc2ccc(-c3ccc(C(=O)NC4CC4)c(F)c3)nc21` as the compound, how does the melting point read?
**A.** The melting point was 156 to 159 °C.

**Q.** Which melting point does the source give for `Cc1noc(NS(=O)(=O)c2ccccc2-c2ccc(-c3ncccn3)cc2)c1C` here?
**A.** Its melting point is over 210 °C.

**Q.** For `CSc1cccc2c3c(n(Cc4ccc(Cl)cc4)c12)C(CC(=O)O)CCC3` (centres undefined), which melting point is on record?
**A.** The melting point was 141 to 142 °C.

**Q.** Which melting point does the source give for `Cc1nc(-n2ccc(O)cc2=O)sc1C(=O)NCCc1ccc(F)cc1` here?
**A.** Its melting point is 225 to 227 °C.

**Q.** With `Cc1ccc([C@@H]2Sc3ccccc3NC(=O)[C@@H]2CN2CCN(C)CC2)cc1` (relative stereo) as the compound, how does the melting point read?
**A.** Its melting point is 196 °C.

**Q.** Which melting point does the source give for `NCCNc1cccc2cn[nH]c12` here?
**A.** The melting point was 166 to 168 °C.

**Q.** With `N#Cc1ccc(C=CC(=O)c2ccccc2N)cc1` as the compound, how does the melting point read?
**A.** The melting point was 126 to 128 °C.

**Q.** With `CCCC(=O)COS(=O)(=O)c1c(C)cc(C)cc1C` as the compound, how does the melting point read?
**A.** Its melting point is 57.5 to 58.5 °C.

**Q.** Which melting point does the source give for `O[C@H](CCc1cccnc1)COc1ccc(-c2nnco2)cc1` here?
**A.** The melting point was 130 to 133 °C.

**Q.** Which melting point does the source give for `CN1C(C(=O)Nc2cccc(F)c2)=C(O)c2ccc3ccccc3c2S1(=O)=O` here?
**A.** The melting point was 278 to 279 °C.

**Q.** Which melting point does the source give for `O=C(NCCc1ccc(I)cc1)C(F)(F)F` here?
**A.** The melting point was 136 to 138 °C.

**Q.** With `CCOCc1nc2c(N)nc3c(c2n1NC(C)C)CCCC3` as the compound, how does the melting point read?
**A.** Its melting point is 144 to 146 °C.

**Q.** With `CC(C)C(NC(=O)OCC1c2ccccc2-c2ccccc21)C(=O)Nc1n[nH]c(=S)s1` (centres undefined) as the compound, how does the melting point read?
**A.** The melting point was 141 to 144 °C.

**Q.** For `CCCCCCCCOc1c(OC)cc(N)c2ncccc12`, which melting point is on record?
**A.** The melting point was 63 to 64 °C.

**Q.** For `CCCCCC(O)(CC#N)c1ccc(OC)cc1` (centres undefined), which melting point is on record?
**A.** Its melting point is 45 to 47 °C.

**Q.** For `COc1cn(Cc2cccc3ccccc23)c(=O)o1`, which melting point is on record?
**A.** Its melting point is 80 to 82 °C.

**Q.** With `O=C(CC(=O)c1cccc(C(F)(F)F)c1NC(=O)CCl)Nc1nccs1` as the compound, how does the melting point read?
**A.** Its melting point is 192 °C.

**Q.** For `Cc1nc2cccc(CNC(=O)OC(C)(C)C)c2c(=O)n1C1CCC(=O)NC1=O` (centres undefined), which melting point is on record?
**A.** The melting point was 206 to 208 °C.

**Q.** Which melting point does the source give for `CCCCCCCCCCCCCCOc1ccc(C(N)=O)cc1` here?
**A.** The melting point was 128 to 130 °C.

**Q.** For `CC(C)C(CO)CS(N)(=O)=O` (centres undefined), which melting point is on record?
**A.** The melting point was 83 to 84 °C.
